Results: US5849735A, “Tricyclic benzazepine vasopressin antagonists” (American Cyanamid Company, priority 1995, dated 1998)

Legend:
[1] = target: T1, vasopressin V1 receptor (rat liver plasma membranes) (Rattus norvegicus, UniProt P30560); assay: Binding Assay to Rat Hepatic V1 Receptors
T1 construct: Rat liver plasma membranes expressing the vasopressin V1 receptor subtypes; from tissue; host or cells: rat liver plasma membranes
Description: Binding Assay to Rat Hepatic V1 Receptors
Rat liver plasma membranes expressing the vasopressin V1 receptor subtypes are isolated by sucrose density gradient according to the method described by Lesko et al., (1973). These membranes are quickly suspended in 50.0 mM Tris.HCl buffer, pH 7.4, containing 0.2% bovine serum albumin (BSA) and 0.1 mM phenylmethylsulfonylfluoride (PMSF) and kept frozen at -70° C. until used in subsequent binding experiments. For binding experiments, the following is added to the wells of a ninety-six well format microtiter plate: […] of […] buffer containing 10.0 mM MgCl2, 0.2% heat inactivated BSA and a mixture of protease inhibitors: leupeptin, 1.0 mg %; aprotinin, 1.0 mg %; 1,10-phenanthroline,2.0 mg %; trypsin inhibitor, 10.0 mg % and 0.1 mM PMSF, 20.0 ml of [phenylalanyl-3,4,5, -^3 H] vasopressin (S.A. 45.1 Ci/mmole) […], and the reaction initiated by the addition of 80 ml of tissue membranes containing 20 mg of tissue protein. The plates are kept undisturbed on the bench top at room temperature for 120 min. to reach equilibrium. Non-specific samples are assayed in the presence of 0.1 mM of the unlabeled […] phenylalanylvasopressin, added in 20.0 ml volume.
For test compounds, these are solubilized in 50% dimethylsulfoxide (DMSO) and added in 20.0 ml volume to a final incubation volume of […]. Upon completion of binding, the content of each well is filtered off, using a Brandel® cell Harvester (Gaithersburg, Md.). The radioactivity trapped on the filter disk by the ligand-receptor complex is assessed by liquid scintillation counting in a Packard LS Counter, with an efficiency of 65% for tritium.

[2] = target: T2, vasopressin V2 receptor (rat kidney medullary) (Rattus norvegicus, UniProt Q00788); assay: Binding Assay to Rat Kidney Medullary V2 Receptors; conditions: for inhibition at 10 µM: rat kidney V2
T2 construct: Medullary tissues from rat kidneys are dissected out; from tissue; host or cells: rat kidney medulla membranes
T2 sequence (Q00788 whole entry): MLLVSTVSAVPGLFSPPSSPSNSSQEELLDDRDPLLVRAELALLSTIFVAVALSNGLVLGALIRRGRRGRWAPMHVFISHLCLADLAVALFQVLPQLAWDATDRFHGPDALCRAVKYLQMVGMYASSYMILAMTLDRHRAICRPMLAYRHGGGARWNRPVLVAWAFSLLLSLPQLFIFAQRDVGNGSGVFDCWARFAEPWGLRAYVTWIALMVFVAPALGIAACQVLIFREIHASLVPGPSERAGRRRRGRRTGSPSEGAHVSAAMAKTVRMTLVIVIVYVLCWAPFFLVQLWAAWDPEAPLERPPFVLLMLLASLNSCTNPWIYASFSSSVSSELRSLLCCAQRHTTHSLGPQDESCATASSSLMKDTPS
Description: Binding Assay to Rat Kidney Medullary V2 Receptors
Medullary tissues from rat kidneys are dissected out, cut into small pieces and soaked in a […] sodium chloride solution containing 1.0 mM EDTA with many changes of the liquid phase, until the solution is clear of blood. […] The tissue is homogenized in a 0.25M sucrose solution containing 1.0 mM EDTA and 0.1 mM PMSF using a Potter-Elvehjem homogenizer with a teflon pestle. The homogenate is filtered through several layers (4 layers) of cheese cloth. The filtrate is rehomogenized using a dounce homogenizer, with a tight fitting pestle. The final homogenate is centrifuged at 1500×g for 15 min. The nuclear pellet is discarded and the supernatant fluid recentrifuged at 40,000×g for 30 min. The resulting pellet formed contains a dark inner part with the exterior, slightly pink. The pink outer part is suspended in a small amount of 50.0 mM Tris.HCl buffer, pH 7.4. The protein content is determined by the Lowry's method (Lowry et al., J. Biol. Chem., 1953). The membrane suspension is stored at -70° C., in 50.0 mM Tris.HCl, containing 0.2% inactivated BSA and 0.1 mM PMSF in aliquots of 1.0 ml containing 10.0 mg protein per ml of suspension until sue in subsequent binding experiments.
For binding experiments, the following is added in ml volume to wells of a 96 well format of a microtiter plate: 100.0 ml of 100.0 mM Tris.HCl buffer containing 0.2% heat inactivated BSA, 10.0 mM MgCL2 and a mixture of protease inhibitors: leupeptin, 1.0 mg %; aprotinin, 1.0 mg % 1,10-phenanthroline, 2.0 mg %; trypsin inhibitor, and 0.1 mM PMSF, 20.0 ml of [^3 H] Arginine^8, vasopressin (S.A. 75.0 Ci/mmole) at 0.8 nM and the reaction initiated by the addition of 80.0 ml of tissue membranes (200.0 mg tissue protein). The plates are left undisturbed on the bench top for 120 minutes to reach equilibrium. Non-specific binding is assessed in the presence of 1.0 mM of unlabeled ligand, added in 20 ml volume. For test compounds, these are solubilized in 50% dimethylsulfoxide (DMSO) and added in 20.0 ml volume to a final incubation volume of […]. Upon completion of binding, the content of each well is filtered off, using a Brandel® cell Harvester (Gaithersburg, Md.). The radioactivity trapped on the filter disk by the ligand-receptor complex is assessed by liquid scintillation counting in a Parkard LS Counter, with an efficiency of 65% for tritium.

[3] = target: T3, vasopressin V1 receptor (human platelet membranes) (Homo sapiens, UniProt P37288); assay: Binding to Vasopressin V1 receptor subtype in Human Platelet Membranes
T3 construct: tissue Hudson Valley Blood Services; host or cells: human platelets (frozen platelet rich plasma)
T3 sequence (P37288 whole entry): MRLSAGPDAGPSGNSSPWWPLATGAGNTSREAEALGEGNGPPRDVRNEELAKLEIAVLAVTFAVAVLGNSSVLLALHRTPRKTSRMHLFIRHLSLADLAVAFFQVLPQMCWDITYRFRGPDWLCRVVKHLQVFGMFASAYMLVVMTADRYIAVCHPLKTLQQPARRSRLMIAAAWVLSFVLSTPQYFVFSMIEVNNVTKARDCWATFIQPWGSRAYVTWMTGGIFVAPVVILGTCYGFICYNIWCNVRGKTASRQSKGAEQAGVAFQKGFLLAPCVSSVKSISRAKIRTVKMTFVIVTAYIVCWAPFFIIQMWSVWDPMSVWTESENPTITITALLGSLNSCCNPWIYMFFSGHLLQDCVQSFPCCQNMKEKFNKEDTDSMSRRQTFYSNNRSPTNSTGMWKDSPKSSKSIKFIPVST
Description: Radioligand Binding Experiments with Human Platelet Membranes
(a) Platelet Membrane Preparation
Frozen platelet rich plasma (PRP), received from the Hudson Valley Blood Services, are thawed to room temperature. (Platelet Source: Hudson Valley Blood Services, Westchester Medical Center, Valhalla, N.Y.). The tubes containing the PRP are centrifuged at 16,000×g for 10 minutes at 4° C. and the supernatant fluid discarded. The platelets resuspended in an equal volume of 50.0 mM Tris.HCL, pH 7.5 containing 120 mM NaCl and 20.0 mM EDTA. The suspension is recentrifuged at 16,000×g for 10 minutes. This washing step is repeated one more time. The wash discarded and the lysed pellets homogenized in low ionic strength buffer of Tris. HCl, […], pH 7.5 containing 5.0 mM EDTA. The homogenate is centrifuged at 39,000×g for 10 minutes. The resulting pellet is resuspended in Tris.HCl buffer, 70.0 mM, pH 7.5 and recentrifuged at 39,000×g for 10 minutes. […]
In wells of a 96 well format microtiter plate, add 100 ml of 50.0 mM Tris. […] Non specific binding is measured in the presence of 1.0 mM of unlabeled ligand (Manning or Arg^8 Vasopressin). […] The radioactivity caught on the filter disks is determined by the addition of liquid scintillant and counting in a liquid scintillator.

T1 sequence (P30560 whole entry): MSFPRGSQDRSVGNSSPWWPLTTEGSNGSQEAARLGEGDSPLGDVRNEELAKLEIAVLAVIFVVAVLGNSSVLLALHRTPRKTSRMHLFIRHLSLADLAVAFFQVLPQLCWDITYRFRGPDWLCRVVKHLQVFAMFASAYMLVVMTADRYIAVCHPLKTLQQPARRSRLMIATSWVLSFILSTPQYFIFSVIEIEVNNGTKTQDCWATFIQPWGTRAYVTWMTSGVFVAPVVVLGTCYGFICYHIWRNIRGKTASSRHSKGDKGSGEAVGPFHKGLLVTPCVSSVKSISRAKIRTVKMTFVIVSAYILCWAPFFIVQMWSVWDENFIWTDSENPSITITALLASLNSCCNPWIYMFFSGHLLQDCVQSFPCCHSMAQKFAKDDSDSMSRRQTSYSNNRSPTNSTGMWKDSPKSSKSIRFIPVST

SMILES | inhibition at 10 µM ([1]; 2 h, rat hepatic V1) | inhibition at 10 µM [2] | also measured
Cc1ccc(F)cc1C(=O)Nc1ccc(C(=O)N2Cc3sccc3Cc3ccccc32)cn1 [Example 2, N-[5-[(9,10-Dihydro-4H-thieno[2,3-c][1]benzazepin-9-yl)carbonyl]-2-pyridinyl]-5-fluoro-2-methylbenzamide] |  |  | IC50 ([1]; rat hepatic V1 receptors): 59 nM; IC50 ([2]; rat kidney medullary V2 receptors): 29 nM
Cc1ccc(F)cc1C(=O)Nc1ccc(C(=O)N2Cc3ccccc3Oc3ncccc32)cn1 [Example 4, N-[5-(Pyrido[2,3-b][1,4]benzoxazepin-5(6H)-ylcarbonyl)-2-pyridinyl]-5-fluoro-2-methylbenzamide] | 44% | 20% | 
CCCCOc1ccc(C(=O)N2Cc3ccccc3Cc3ccccc32)cc1 [Example 24] |  |  | V1 % ([3]; "(μM)" (concentration not given), 90 min): 72%
O=C(c1ccc(-c2ccccc2)cc1)N1Cc2ccccc2Oc2ccccc21 [Example 26, 10-([1,1'-Biphenyl]-4-ylcarbonyl)-10,11-dihydrodibenz[b,f][1,4]oxazepine] |  | 29% | inhibition at 1 µM ([1]; 2 h, rat hepatic V1, at 1 μM): 46%
O=C(c1ccc(-c2ccccc2)cc1)N1Cc2sccc2Cc2ccccc21 [Example 27, 9-([1,1'-Biphenyl]-4-ylcarbonyl)-9,10-dihydro-4H-thieno[2,3-c][1]benzazepine] |  |  | IC50 [3]: 14 nM
O=C(c1ccccc1)c1ccc(C(=O)N2Cc3ccccc3Oc3ccccc32)cc1 [Example 32, 10-(4-Benzoylbenzoyl)-10,11-dihydrodibenz[b,f][1,4]oxazepine] | 53% | 33% | 
Cc1ccc(F)cc1C(=O)Nc1ccc(C(=O)N2Cc3ccccc3CCc3ccccc32)cn1 [Example 45] | 34% | 62% | 
